Each structure is given as a SMILES string. Calls of active or inactive are those of the source. The calls are words filed in the database; no cut-off is given here.

From ChEMBL document CHEMBL5543126, “Combinatorial Ubiquitination REal-time PROteolysis (CURE-PROs): A Modular Platform for Generating Reversible, Self-Assembling Bifunctional Targeted Degraders” (J Med Chem, 2024) come the findings set out here.

What all share (format): cell-based
The target in assay [1] is T1, von Hippel-Lindau disease tumor suppressor/Bromodomain-containing protein 4 (Homo sapiens, UniProt O60885+P40337). Briefly: PROTAC activity at BRD4/VHL in human MCF7 cells assessed as induction of BRD4 degradation by measuring residual activity at 1 uM incubated for 24 hrs in presence of 10 uM BRD4 based ligand ((4S)-6-(4-chlorophenyl)-4-(2-(ethylamino)-2-oxoethyl)-1-methyl4Hbenzo[f][1,2,4]triazolo [4,3-a][1,4]diazepin-8-yl)boronic acid by Western blot based Combinatorial Ubiquitination Real-time PROteolysis analysis. (Immunoblotting shows a protein as a band on a membrane.)
T1 sequence (P40337 whole entry, looked up, other chains not shown): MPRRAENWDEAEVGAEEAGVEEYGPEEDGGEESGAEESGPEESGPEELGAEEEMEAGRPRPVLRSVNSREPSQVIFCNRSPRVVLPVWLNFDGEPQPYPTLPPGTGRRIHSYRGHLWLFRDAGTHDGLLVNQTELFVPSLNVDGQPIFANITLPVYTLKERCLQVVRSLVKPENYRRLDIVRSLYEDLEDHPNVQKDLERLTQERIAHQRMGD

The target of assay [2] is T1, von Hippel-Lindau disease tumor suppressor/Bromodomain-containing protein 4. Nature of the assay: PROTAC activity at BRD4/VHL in human MCF7 cells assessed as induction of BRD4 degradation by measuring residual activity at 30 nM incubated for 24 hrs in presence of BRD4 based ligand ((4S)-6-(4-chlorophenyl)-4-(2-(ethylamino)-2-oxoethyl)-1-methyl4Hbenzo[f][1,2,4]triazolo [4,3-a][1,4]diazepin-8-yl)boronic acid by Western blot based Combinatorial Ubiquitination Real-time PROteolysis analysis.

Assay [3] shares this target. Briefly: PROTAC activity at BRD4/VHL in human MCF7 cells assessed as induction of BRD4 degradation by measuring residual activity at 300 nM incubated for 24 hrs in presence of 3 uM BRD4 based ligand ((4S)-6-(4-chlorophenyl)-4-(2-(ethylamino)-2-oxoethyl)-1-methyl4Hbenzo[f][1,2,4]triazolo [4,3-a][1,4]diazepin-8-yl)boronic acid by Western blot based Combinatorial Ubiquitination Real-time PROteolysis analysis.

For assay [4] the target is unchanged. Nature of the assay: PROTAC activity at BRD4/VHL in human MCF7 cells assessed as induction of BRD4 degradation by measuring residual activity at 30 nM incubated for 24 hrs in presence of 10 uM BRD4 based ligand ((4S)-6-(4-chlorophenyl)-4-(2-(ethylamino)-2-oxoethyl)-1-methyl4Hbenzo[f][1,2,4]triazolo [4,3-a][1,4]diazepin-8-yl)boronic acid by Western blot based Combinatorial Ubiquitination Real-time PROteolysis analysis.

Assay [5] has the same target. Briefly: PROTAC activity at VHL/BRD4 in HEK293 cells assessed as induction of BRD4 degradation by measuring Tmax at 1 uM measured every 15 mins for 24 hrs in presence of BRD4 based ligand ((4S)-6-(4-chlorophenyl)-4-(2-(ethylamino)-2-oxoethyl)-1-methyl4Hbenzo[f][1,2,4]triazolo [4,3-a][1,4]diazepin-8-yl)boronic acid by HiBiT based Combinatorial Ubiquitination Real-time PROteolysis analysis. On the technique in general: With HiBiT, luminescence reflects the tagged protein that the partner subunit can reach.

The target is the same in assay [6]. Nature of the assay: PROTAC activity at VHL/BRD4 in HEK293 cells assessed as induction of BRD4 degradation by measuring maximal level of degradation at 1 uM measured every 15 mins for 24 hrs in presence of BRD4 based ligand ((4S)-6-(4-chlorophenyl)-4-(2-(ethylamino)-2-oxoethyl)-1-methyl4Hbenzo[f][1,2,4]triazolo [4,3-a][1,4]diazepin-8-yl)boronic acid by HiBiT based Combinatorial Ubiquitination Real-time PROteolysis analysis.

Assay [7] shares this target. Nature of the assay: PROTAC activity at BRD4/VHL in human MCF7 cells assessed as induction of BRD4 degradation by measuring residual activity at 10 uM incubated for 24 hrs in presence of 10 uM VHL based ligand (2S,4R)-1-((S)-2-(2,3-dihydroxybenzamido)-3,3-dimethylbutanoyl)-4-hydroxy-N-(4-(4-methylthiazol-5-yl)benzyl)pyrrolidine-2-carboxamide by Western blot based Combinatorial Ubiquitination Real-time PROteolysis analysis.

The target is the same in assay [8]. Briefly: PROTAC activity at BRD4/VHL in human MCF7 cells assessed as reduction in BRD4 level incubated for 24 hrs in presence of BRD4 based ligand ((4S)-6-(4-chlorophenyl)-4-(2-(ethylamino)-2-oxoethyl)-1-methyl4Hbenzo[f][1,2,4]triazolo [4,3-a][1,4]diazepin-8-yl)boronic acid by Western blot based Combinatorial Ubiquitination Real-time PROteolysis analysis.
Assay [9] shares this target. Briefly: PROTAC activity at VHL/BRD4 in HEK293 cells assessed as induction of BRD4 degradation by measuring maximal level of degradation at 1 uM measured every 15 mins for 24 hrs in presence of VHL based ligand (2S,4R)-1-((S)-2-(2,3-dihydroxybenzamido)-3,3-dimethylbutanoyl)-4-hydroxy-N-(4-(4-methylthiazol-5-yl)benzyl)pyrrolidine-2-carboxamide by HiBiT based Combinatorial Ubiquitination Real-time PROteolysis analysis.

For assay [10] the target is unchanged. Briefly: PROTAC activity at VHL/BRD4 in HEK293 cells assessed as induction of BRD4 degradation by measuring degradation rate at 10 uM measured every 15 mins for 24 hrs in presence of VHL based ligand (2S,4R)-1-((S)-2-(2,3-dihydroxybenzamido)-3,3-dimethylbutanoyl)-4-hydroxy-N-(4-(4-methylthiazol-5-yl)benzyl)pyrrolidine-2-carboxamide by HiBiT based Combinatorial Ubiquitination Real-time PROteolysis analysis.

As to `Cc1ncsc1-c1ccc(CNC(=O)[C@@H]2C[C@@H](O)CN2C(=O)[C@@H](NC(=O)c2cccc(O)c2O)C(C)(C)C)cc1`, the Activity was found to be 20% in assay [1], 91% in assay [2], 37% in assay [3] and 76% in assay [4]. Moreover, in assay [5], the Tmax stood at 19.5 h. Also, the Emax in assay [6] is 80%.
Turning to `CCNC(=O)C[C@@H]1N=C(c2ccc(Cl)cc2)c2cc(B(O)O)ccc2-n2c(C)nnc21`, the Activity in assay [7] was determined as 6%; in assay [10] it was 4.18 h⁻¹. Besides, the outcome in [8] was inactive. Moreover, the Emax in assay [9] turned out to be 80%.

As usually defined, the Emax is the greatest response seen or fitted, relative to the assay's reference.
